Experimental data as given in ChEMBL document CHEMBL1143364, “Preliminary evaluation of pharmacological properties of some xanthone derivatives” (Bioorg Med Chem, 2009).
Active and inactive are the calls of the source. The rule behind the calls is not given here.

Legend:
Mus musculus [1] = experiment: Anticonvulsant activity in CF1 mouse assessed as inhibition of maximal electroshock-induced seizures at 30 mg/kg, ip after 4 hrs; format: functional, organism-based; design: dose 30 mg/kg
Rattus norvegicus [2] = experiment: Cardiotoxicity in Wistar rat assessed as decrease in cardiac beats per minute at 10 mg/kg, iv by ECG; format: toxicity, organism-based, Heart; design: dose 10 mg/kg, route intravenous; scale not given: the % may be the effect or the level left; conditions: in vivo
Rattus norvegicus [3] = experiment: Hypotensive activity in normotensive Wistar rat assessed as reduction in blood pressure at 10 mg/kg, iv after 60 mins; format: functional, organism-based; design: dose 10 mg/kg
[4] = molecular target: Beta-1 adrenergic receptor (Rattus norvegicus, UniProt P18090); experiment: biochemical
Sequence of Beta-1 adrenergic receptor (P18090 whole entry): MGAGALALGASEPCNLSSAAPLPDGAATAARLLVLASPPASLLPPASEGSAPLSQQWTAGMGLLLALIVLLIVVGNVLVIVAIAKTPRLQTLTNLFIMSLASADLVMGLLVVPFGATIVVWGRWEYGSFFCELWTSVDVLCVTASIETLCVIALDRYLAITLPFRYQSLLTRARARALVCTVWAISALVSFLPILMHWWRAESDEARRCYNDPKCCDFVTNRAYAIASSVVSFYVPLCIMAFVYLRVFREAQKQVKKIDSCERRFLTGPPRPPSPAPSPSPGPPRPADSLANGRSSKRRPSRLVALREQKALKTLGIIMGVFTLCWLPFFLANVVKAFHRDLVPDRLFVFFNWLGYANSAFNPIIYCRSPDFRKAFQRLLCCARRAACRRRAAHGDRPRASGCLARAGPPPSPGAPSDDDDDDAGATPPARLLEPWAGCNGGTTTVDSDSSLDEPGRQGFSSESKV
Description: Displacement of [3H]CGP12177 from beta-1 adrenergic receptor in rat cerebral cortex by liquid scintillation counting

Mus musculus [5] = experiment: Anticonvulsant activity in CF1 mouse assessed as inhibition of maximal electroshock-induced seizures at 100 mg/kg, ip after 0.5 hrs; format: functional, organism-based; design: dose 100 mg/kg
Mus musculus [6] = experiment: Anticonvulsant activity in CF1 mouse assessed as inhibition of maximal electroshock-induced seizures at 300 mg/kg, ip after 4 hrs; format: functional, organism-based; design: dose 300 mg/kg
Mus musculus [7] = experiment: Neurotoxicity in CF1 mouse at 100 mg/kg, ip after 4 hrs by rotarod test; format: toxicity, organism-based; design: dose 100 mg/kg, route intraperitoneal; conditions: in vivo
Mus musculus [8] = experiment: Neurotoxicity in CF1 mouse at 300 mg/kg, ip after 4 hrs by rotarod test; format: toxicity, organism-based; design: dose 300 mg/kg, route intraperitoneal; conditions: in vivo
Mus musculus [9] = experiment: Neurotoxicity in CF1 mouse at 100 mg/kg, ip after 0.5 hrs by rotarod test; format: toxicity, organism-based; design: dose 100 mg/kg, route intraperitoneal; conditions: in vivo
Mus musculus [10] = experiment: Anticonvulsant activity in CF1 mouse assessed as inhibition of subcutaneous pentylenetetrazole-induced seizures; format: functional, organism-based
Mus musculus [11] = experiment: Neurotoxicity in CF1 mouse at 30 mg/kg, ip after 4 hrs by rotarod test; format: toxicity, organism-based; design: dose 30 mg/kg, route intraperitoneal; conditions: in vivo
Rattus norvegicus [12] = experiment: Antiarrhythmic activity in anaesthetized iv dosed Wistar rat assessed as decrease in adrenaline-induced cardiac rhythm disturbance administered 15 mins before adrenaline challenge; format: functional; conditions: Heart
Mus musculus [13] = experiment: Neurotoxicity in CF1 mouse at 30 mg/kg, ip after 0.5 hrs by rotarod test; format: toxicity, organism-based; design: dose 30 mg/kg, route intraperitoneal; conditions: in vivo
[14] = molecular target: T1, Adrenergic receptor alpha-1 (Rattus norvegicus, UniProt P15823+P23944+P43140); experiment: Displacement of [3H]prazosin from alpha1 adrenergic receptor in rat cerebral cortex by liquid scintillation counting; format: tissue-based
T1 sequence (P15823 whole entry): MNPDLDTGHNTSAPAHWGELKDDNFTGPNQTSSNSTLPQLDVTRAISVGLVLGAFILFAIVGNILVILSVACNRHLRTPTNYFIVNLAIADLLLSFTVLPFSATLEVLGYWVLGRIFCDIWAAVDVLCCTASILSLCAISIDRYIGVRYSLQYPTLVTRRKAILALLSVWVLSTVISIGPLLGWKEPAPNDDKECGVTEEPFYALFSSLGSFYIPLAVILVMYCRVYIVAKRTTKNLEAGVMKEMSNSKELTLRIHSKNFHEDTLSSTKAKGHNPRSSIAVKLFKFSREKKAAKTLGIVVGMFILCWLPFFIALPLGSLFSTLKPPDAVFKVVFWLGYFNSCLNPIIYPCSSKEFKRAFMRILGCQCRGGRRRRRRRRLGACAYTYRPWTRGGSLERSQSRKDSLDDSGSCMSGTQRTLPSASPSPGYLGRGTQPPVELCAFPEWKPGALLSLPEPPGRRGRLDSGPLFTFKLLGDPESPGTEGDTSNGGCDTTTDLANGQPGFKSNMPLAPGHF
T1 sequence (P23944 whole entry): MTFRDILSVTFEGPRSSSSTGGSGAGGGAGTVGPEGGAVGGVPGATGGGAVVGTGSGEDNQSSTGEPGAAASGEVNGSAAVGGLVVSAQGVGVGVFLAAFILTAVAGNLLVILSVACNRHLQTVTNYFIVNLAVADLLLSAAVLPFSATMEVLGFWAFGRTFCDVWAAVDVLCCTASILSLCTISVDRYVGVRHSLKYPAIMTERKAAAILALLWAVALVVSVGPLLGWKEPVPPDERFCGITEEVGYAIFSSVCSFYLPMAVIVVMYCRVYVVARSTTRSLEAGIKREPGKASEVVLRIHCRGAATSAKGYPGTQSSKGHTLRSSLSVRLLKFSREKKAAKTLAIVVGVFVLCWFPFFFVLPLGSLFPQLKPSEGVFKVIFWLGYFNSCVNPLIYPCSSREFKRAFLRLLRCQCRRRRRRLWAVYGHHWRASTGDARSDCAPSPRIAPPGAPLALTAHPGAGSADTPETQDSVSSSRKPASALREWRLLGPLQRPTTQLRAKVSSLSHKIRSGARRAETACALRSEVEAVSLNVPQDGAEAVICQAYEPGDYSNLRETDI
T1 sequence (P43140 whole entry): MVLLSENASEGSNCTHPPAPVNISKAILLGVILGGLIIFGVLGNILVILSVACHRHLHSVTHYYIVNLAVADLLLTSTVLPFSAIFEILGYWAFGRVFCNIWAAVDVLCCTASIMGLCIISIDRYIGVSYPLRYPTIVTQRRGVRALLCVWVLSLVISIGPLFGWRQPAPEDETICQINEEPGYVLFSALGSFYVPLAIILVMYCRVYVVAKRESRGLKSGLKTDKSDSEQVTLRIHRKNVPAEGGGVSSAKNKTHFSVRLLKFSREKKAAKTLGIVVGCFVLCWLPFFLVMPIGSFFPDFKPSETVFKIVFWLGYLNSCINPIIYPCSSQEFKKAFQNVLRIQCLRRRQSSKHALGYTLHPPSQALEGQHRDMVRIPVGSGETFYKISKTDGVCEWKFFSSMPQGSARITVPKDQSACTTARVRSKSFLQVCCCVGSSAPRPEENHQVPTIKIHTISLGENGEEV

Mus musculus [15] = experiment: Neurotoxicity in CF1 mouse at 300 mg/kg, ip after 0.5 hrs by rotarod test; format: toxicity, organism-based; design: dose 300 mg/kg, route intraperitoneal; conditions: in vivo
Rattus norvegicus [16] = experiment: Cardiotoxicity in Wistar rat assessed as prolongation of PQ interval at 10 mg/kg, iv by ECG; format: toxicity, organism-based; design: dose 10 mg/kg, route intravenous; conditions: in vivo
Mus musculus [17] = experiment: Anticonvulsant activity in CF1 mouse assessed as inhibition of maximal electroshock-induced seizures at 30 mg/kg, ip after 0.5 hrs; format: functional, organism-based; design: dose 30 mg/kg
Mus musculus [18] = experiment: Anticonvulsant activity in CF1 mouse assessed as inhibition of maximal electroshock-induced seizures at 300 mg/kg, ip after 0.5 hrs; format: functional, organism-based; design: dose 300 mg/kg
Mus musculus [19] = experiment: Anticonvulsant activity in CF1 mouse assessed as inhibition of maximal electroshock-induced seizures at 100 mg/kg, ip after 4 hrs; format: functional, organism-based; design: dose 100 mg/kg
Rattus norvegicus [20] = experiment: Cardiotoxicity in Wistar rat assessed as prolongation of PQ interval at 5 mg/kg, iv by ECG; format: toxicity, organism-based; design: dose 5 mg/kg, route intravenous; conditions: in vivo
Rattus norvegicus [21] = experiment: Cardiotoxicity in Wistar rat assessed as decrease in cardiac beats per minute at 5 mg/kg, iv by ECG; format: toxicity, organism-based, Heart; design: dose 5 mg/kg, route intravenous; scale not given: the % may be the effect or the level left; conditions: in vivo
Rattus norvegicus [22] = experiment: Hypotensive activity in normotensive Wistar rat assessed as reduction in diastolic blood pressure at 2.5 mg/kg, iv; format: functional, organism-based; design: dose 2.5 mg/kg; conditions: Artery
Rattus norvegicus [23] = experiment: Hypotensive activity in normotensive Wistar rat assessed as reduction in diastolic blood pressure at 10 mg/kg, iv; format: functional, Artery; design: scale not given: the % may be the effect or the level left
Rattus norvegicus [24] = experiment: Hypotensive activity in normotensive Wistar rat assessed as reduction in systolic blood pressure at 10 mg/kg, iv; format: functional; design: scale not given: the % may be the effect or the level left
Rattus norvegicus [25] = experiment: Hypotensive activity in normotensive Wistar rat assessed as reduction in systolic blood pressure at 5 mg/kg, iv; format: functional, Artery; design: scale not given: the % may be the effect or the level left
Rattus norvegicus [26] = experiment: Hypotensive activity in normotensive Wistar rat assessed as reduction in diastolic blood pressure at 5 mg/kg, iv; format: functional, Artery; design: scale not given: the % may be the effect or the level left
Rattus norvegicus [27] = experiment: Cardiotoxicity in Wistar rat assessed as prolongation of QT interval at 10 mg/kg, iv by ECG; format: toxicity, organism-based; design: dose 10 mg/kg, route intravenous; conditions: in vivo
Rattus norvegicus [28] = experiment: Hypotensive activity in normotensive Wistar rat assessed as reduction in systolic blood pressure at 1.25 mg/kg, iv; format: functional, Artery; design: scale not given: the % may be the effect or the level left
Rattus norvegicus [29] = experiment: Antiarrhythmic activity in anaesthetized Wistar rat assessed as decrease in arrhythmia-induced mortality at 1.25 mg/kg, iv administered 15 mins before adrenaline challenge; format: functional, Heart; design: scale not given: the % may be the effect or the level left
Rattus norvegicus [30] = experiment: Hypotensive activity in normotensive Wistar rat assessed as reduction in diastolic blood pressure at 1.25 mg/kg, iv; format: functional, Artery; design: scale not given: the % may be the effect or the level left
Rattus norvegicus [31] = experiment: Hypotensive activity in normotensive Wistar rat assessed as reduction in blood pressure at 0.625 mg/kg, iv after 60 mins; format: functional, organism-based; design: dose 0.625 mg/kg

| Compound | Activity (Mus musculus [1]) | Activity (Rattus norvegicus [2]) [%] | Ki [4] [µM] | Activity (Mus musculus [5]) | Activity (Mus musculus [6]) | Activity (Mus musculus [7]) | Activity (Mus musculus [8]) | Activity (Mus musculus [9]) | Activity (Mus musculus [10]) | Activity (Mus musculus [11]) | Activity (Rattus norvegicus [12]) | Activity (Mus musculus [13]) | Ki [14] [µM] | Activity (Mus musculus [15]) | Activity (Mus musculus [17]) | Activity (Mus musculus [18]) | Activity (Mus musculus [19]) | ED50 (Rattus norvegicus [12]) [mg/kg] | other results |
| --- | --- | --- | --- | --- | --- | --- | --- | --- | --- | --- | --- | --- | --- | --- | --- | --- | --- | --- | --- |
| CC(C)(CO)NCCCOc1cccc2c(=O)c3ccccc3oc12.Cl | inactive | 15 | 2.6 | inactive | inactive | Non-toxic | Non-toxic | Non-toxic | inactive | Non-toxic | Active | Non-toxic | 8.7 | 25% | inactive | inactive | inactive | – | Activity (Rattus norvegicus [3]): Active; Activity (Rattus norvegicus [16]): Toxic |
| C=CCNCCCOc1cccc2c(=O)c3ccccc3oc12.Cl | inactive | 20 | 7.7 | inactive | – | Non-toxic | – | – | inactive | Non-toxic | Active | Non-toxic | 4.6 | Toxic | inactive | – | inactive | – | Activity (Rattus norvegicus [16]): Toxic |
| CC(CO)(CO)NCC(O)COc1cccc2c(=O)c3ccccc3oc12.Cl (stereo not drawn) | inactive | – | 0.004 | inactive | inactive | Non-toxic | Non-toxic | Non-toxic | inactive | Non-toxic | – | Non-toxic | 49.8 | 25% | inactive | inactive | inactive | 1.75 | Activity (Rattus norvegicus [20]): Toxic; Activity (Rattus norvegicus [21]): 13%; Activity (Rattus norvegicus [22]): inactive |
| C=CCNCC(O)COc1ccc2oc3ccccc3c(=O)c2c1.Cl (stereo not drawn) | inactive | – | 30.9 | – | Active | Non-toxic | – | Non-toxic | inactive | Non-toxic | Active | Non-toxic | 4.9 | Toxic | inactive | Active | inactive | – | Activity (Rattus norvegicus [23]): 11%; Activity (Rattus norvegicus [24]): 10% |
| CC(CO)(CO)NCC(O)COc1cccc2c(=O)c3ccc(Cl)cc3oc12.Cl (stereo not drawn) | inactive | – | 0.047 | inactive | inactive | Non-toxic | – | Non-toxic | inactive | – | Active | Non-toxic | 20.6 | Non-toxic | inactive | inactive | inactive | – | Activity (Rattus norvegicus [21]): 21%; Activity (Rattus norvegicus [22]): inactive |
| C=CCNCC(O)COc1ccc2c(=O)c3ccccc3oc2c1.Cl (stereo not drawn) | inactive | – | 44.4 | – | Active | Non-toxic | Non-toxic | Non-toxic | inactive | Non-toxic | Active | Non-toxic | 8.1 | Toxic | inactive | Active | inactive | – | Activity (Rattus norvegicus [3]): Active |
| C=CCNCC(O)COc1cccc2c(=O)c3ccccc3oc12.Cl (stereo not drawn) | inactive | 24 | 0.084 | inactive | inactive | Non-toxic | Non-toxic | – | inactive | Non-toxic | Active | – | 7.3 | 50% | inactive | inactive | inactive | – | Activity (Rattus norvegicus [25]): 9%; Activity (Rattus norvegicus [26]): 11%; Activity (Rattus norvegicus [27]): 17% |
| CC(C)(CO)NCC(O)COc1cccc2c(=O)c3ccc(Cl)cc3oc12.Cl (stereo not drawn) | inactive | 30 | 0.011 | inactive | inactive | – | Toxic | – | inactive | Non-toxic | – | – | 5.6 | Toxic | inactive | inactive | inactive | 2.46 | Activity (Rattus norvegicus [28]): 17%; Activity (Rattus norvegicus [27]): 13%; Activity (Rattus norvegicus [29]): 60%; Activity (Rattus norvegicus [30]): 19%; Activity (Rattus norvegicus [31]): Active |
| CC(C)NCC(O)COc1cccc2ccccc12 (stereo not drawn) [PROPRANOLOL] | – | – | – | – | – | – | – | – | – | – | – | – | – | – | – | – | – | 1.05 | – |
